Data published in patent US8802705B2, “Pharmaceutical containing PPAR delta agonist” (Senju Pharmaceutical Co., Ltd., priority 2007, dated 2014).

How the values were obtained:
Type in all cases: cell-based
[1] = tested on: Normal human corneal epithelial cells; assay: Effect on increase of cell number of normal human corneal epithelial cells (Experimental Example 4, Cell Counting Kit-8); conditions: for effect on cell number of normal human corneal epithelial cells (in words): 0.01-1 μM, conclusion of the test; for cell number increase rate: relative to non-addition group = 100%, mean ± SD, N = 4
Description: (§1) Normal human corneal epithelial cells (KURABO) were used.
As a test substance, compound B or compound C was used. Compound B and compound C were each dissolved in ethanol (Wako Pure Chemical Industries, Ltd.) to a concentration 200-fold of the final concentration in a culture medium, and the solution was stored at −80° C. until immediately before use.
As a cell culture medium for consideration of the cell number-increasing effect by compound B and compound C, a culture medium (basal medium) obtained by adding insulin, hydrocortisone and transferrin contained in HCGS growth additive set (KURABO) to EpiLife (KURABO) was used.
Normal human corneal epithelial cells cryopreserved in liquid nitrogen were thawed and the cell number was counted. The total amount thereof was transferred to EpiLife added with all of the HCGS growth additive set (insulin, epidermal growth factor mEGF derived from mouse, hydrocortisone, transferrin, bovine brain hypophysis extract) (4 mL, complete medium), and suspended well therein. The cell suspension was seeded on a fibronectin-coated 24 well plate (Becton Dickinson) at a cell number of 2×10^4 cells/500 μL/well (1×10^4 cells/cm^2 since bottom area was 2 cm^2). After completion of cell seeding, the culture plate was incubated in an incubator set to 37° C., 5% CO2, 95% air and 100% humidity for 24 hr, and the culture medium was changed to 400 μL of the basal medium (EpiLife added with insulin, hydrocortisone and transferrin from HCGS growth additives). After 24 hr thereafter, the culture medium was changed to the following culture medium (each 400 μL). • [1] basal medium alone (non-addition group) • [2] basal medium+mEGF (final concentration: 1 ng/mL; positive control group) • [3] basal medium+compound B (final concentration: 0.01 μM, 0.1 μM, 1 μM; compound B addition group) • [4] basal medium+compound C (final concentration: 0.01 μM, 0.1 μM, 1 μM; compound C addition group)
(§2) Ethanol (5 μL) was added to 1 mL each of culture media and [2] to uniformly set the ethanol concentration of all culture media to 0.5%.
(§3) After 24 hr from the start of the stimulation with compound B or compound C, the culture supernatant was removed from each well, and a basal medium added with 10% Cell Counting Kit-8 (DOJINDO) was dispensed to each well by 200 μL. After dispensing, the culture plate was transferred to an incubator set to 37° C., 5% CO2, 95% air and 100% humidity and incubated for 2 hr. The supernatant (100 μL) was transferred to a 96 well culture plate for tissue culture (Corning), and the absorbance of each well at 450 nm was measured with a microplate reader (Dainippon Sumitomo Pharma Co., Ltd.), and used as an index of cell number increase.
(§4) The values of the positive control group and the compound B or compound C addition group were calculated based on the average absorbance of the non-addition group as 100%, and the non-addition group was compared with the compound B or compound C addition group and positive control group according to the Dunnett multiple comparison test (one-tailed). A critical value of less than 5% as a result of the test was judged as significant.

[2] = tested on: monkey meibomian gland epithelial cells; assay: Effect on cell number increase in meibomian gland epithelial cells (Experimental Example 3, Cell Counting Kit-8); conditions: medium renewed every 48 hr (3 x 48 hr), relative to non-addition group = 100%, mean ± SD, N = 5 or 10
Excerpt: An eyelid of monkey isolated and stored in D-PBS was transferred to a clean bench, and cell preparation was aseptically performed as follows.
The isolated eyelid was immersed in 80% ethanol for 30 sec, washed three times with D-PBS added with 1% penicillin-streptomycin (Invitrogen), and transferred to a minimum essential medium (MEM; Invitrogen). The adipose tissue and muscular tissue surrounding the meibomian glandular tissue of the eyelid were removed under a stereomicroscope. They were transferred to MEM containing 0.3 U/mL collagenase A (Roche Diagnostics) and 2.4 U/mL dispase II (Roche Diagnostics), and shaken at 37° C. for 4 hr and at 4° C. overnight. The enzyme-treated tissue was set under a stereomicroscope, and the eyelash and eyelid connective tissue were removed to isolate the meibomian glandular tissue. Trypsin-EDTA (4 mL, Invitrogen) was added to the isolated glandular tissue, and the mixture was incubated at 37° C. for 10 min. After incubation, MEM (5 mL) containing 10% FBS (Invitrogen) was added thereto to stop the enzyme reaction, and the tissue constituting cells were dispersed by repeated suction and discharge of the mixture 5 times using an injection syringe equipped with a 21 G injection needle. The cell dispersion was passed through 100 μm and 40 μm nylon filters (Cell Strainer; Falcon), and cell mass and the like contained therein which could not be treated with the enzyme were removed. The cell suspension passed through the filters was collected in a centrifuge tube (50 mL) and centrifuged at room temperature, 1,500 rpm for 5 min. To the cell layers containing the object cells obtained by the centrifugation was added 80 μL of D-PBS containing 0.5% bovine serum albumin (BSA; Sigma-Aldrich), and the cells were sufficiently suspended therein. Anti-Fibroblast Microbeads (Militenyi Biotec, 20 μL) was added thereto, and the mixture was left standing at room temperature for 30 min. After completion of the reaction with an antibody, 2 mL of D-PBS containing 0.5% BSA was added thereto, and the mixture was centrifuged again at room temperature, 1,500 rpm for 5 min. To the cell layers containing the object cells obtained by the centrifugation was added 1 mL of D-PBS containing 0.5% BSA, and the cells were sufficiently suspended therein. The suspension was added dropwise to LD column (Militenyi Biotec) equilibrated in advance with a column washing solution (D-PBS containing 2 mM EDTA (DOJINDO LABORATORIES) and 0.5% BSA). Then, 2 mL of the column washing solution was added dropwise to the LD column. […] The cells collected in the centrifuge tube were centrifuged at room temperature, 1,500 rpm for 5 min, and the supernatant was removed. The sediment was suspended in Defined Keratinocyte Serum Free Medium (5 mL), centrifuged at room temperature, 1,500 rpm for 5 min, and removed the supernatant. Again, the residue was suspended in DK-SFM (3 mL), centrifuged at room temperature and 1,500 rpm for 5 min, and the supernatant was removed. The cells were suspended in DK-SFM (2 mL), and seeded on a 6 well multi-well plate for cell culture, which had been treated with collagen. The seeded cells were cultured in Defined keratinocyte-Serum Free Medium (DK-SFM; Invitrogen, attached Supplement was added as instructed in the preparation protocol), cultured in an incubator (SANYO) set to 37° C., 5% CO2, 95% air, 100% humidity, and the culture medium was exchanged with a new one every 48 hr until the cells became subconfluent.
As a test substance, compound A, [4-[3-[2-(4-trifluoromethyl)phenyl-4-isopropyl-5-thiazolyl]propionyl]-2-methylphenoxy]acetic acid (hereinafter to be referred to as compound B) or [4-[3-[2-(2-hydroxy-4-chlorophenyl)-5-isopropyl-4-oxazolyl]propionyl]-2-methylphenoxy]acetic acid (hereinafter to be referred to as compound C) was used. […]

[3] = tested on: Normal human corneal epithelial cells; assay: Effect on increase of cell number of normal human corneal epithelial cells (Experimental Example 1, Cell Counting Kit-8); conditions: positive control, final concentration 1 ng/mL, 24 hr, relative to non-addition group = 100%, mean ± SD
Description: as §1
As a test substance, [3-[2-[4-isopropyl-2-(4-trifluoromethyl)phenyl-5-thiazolyl]ethyl]-5-methyl-1,2-benzisoxazol-6-yl]oxyacetic acid (hereinafter to be referred to as compound A) was used. Compound A was dissolved in ethanol (Wako Pure Chemical Industries, Ltd.) to a concentration 200-fold of the final concentration in a culture medium, and the solution was stored at −80° C. until immediately before use.
As a cell culture medium for consideration of the cell number-increasing effect by compound A, a culture medium (basal medium) obtained by adding insulin, hydrocortisone and transferrin contained in HCGS growth additive set (KURABO) to EpiLife (KURABO) was used.
Normal human corneal epithelial cells cryopreserved in liquid nitrogen were thawed and the cell number was counted. The total amount thereof was transferred to EpiLife added with all of the HCGS growth additive set (insulin, epidermal growth factor mEGF derived from mouse, hydrocortisone, transferrin, bovine brain hypophysis extract) (4 mL, complete medium), and suspended well therein. The cell suspension was seeded on a fibronectin-coated 24 well plate (Becton Dickinson) at a cell number of 2×10^4 cells/500 μL/well (1×10^4 cells/cm^2 since bottom area was 2 cm^2).
After completion of cell seeding, the culture plate was incubated in an incubator set to 37° C., 5% CO2, 95% air and 100% humidity for 24 hr, and the culture medium was changed to 400 μL of the basal medium (EpiLife added with insulin, hydrocortisone and transferrin from HCGS growth additives).
After 24 hr thereafter, the culture medium was changed to the following culture medium (each 400 μL). • [1] basal medium alone (non-addition group) • [2] basal medium+mEGF (final concentration: 1 ng/mL; positive control group) • [3] basal medium+compound A (final concentration: 0.1 nM, 1 nM, 0.01 μM, 0.1 μM; compound A addition group)
as §2
as §3, with “A,” for “B or compound C,”
as §4, with “A” for “B or compound C”

| Compound | effect on cell number of normal human corneal epithelial cells (in words) [1] | cell number increase rate ([1]; 10^−6 M, 24 hr stimulation) [%] | cell number increase rate ([1]; 10^−7 M, 24 hr stimulation) [%] | cell number increase rate ([1]; 10^−8 M, 24 hr stimulation) [%] | cell number increase ratio ([2]; 10^−6 M) [%] | cell number increase ratio ([2]; 10^−7 M) [%] | cell number increase ratio ([2]; 10^−8 M) [%] | cell number increase rate ([1]; positive control, final concentration 1 ng/mL, 24 hr) [%] | cell number increase rate [3] [%] |
| --- | --- | --- | --- | --- | --- | --- | --- | --- | --- |
| Cc1cc(C(=O)CCc2sc(-c3ccc(C(F)(F)F)cc3)nc2C(C)C)ccc1OCC(=O)O [compound B, [4-[3-[2-(4-trifluoromethyl)phenyl-4-isopropyl-5-thiazolyl]propionyl]-2-methylphenoxy]acetic acid] | increase the cell number of normal human corneal epithelial cells | 254.3 ± 11.7 | 256.4 ± 11.0 | 252.4 ± 34.7 | 158.8 ± 15.2 | 174.4 ± 8.9 | 155.0 ± 28.0 |  |  |
| Cc1cc(C(=O)CCc2nc(-c3ccc(Cl)cc3O)oc2C(C)C)ccc1OCC(=O)O [compound C, [4-[3-[2-(2-hydroxy-4-chlorophenyl)-5-isopropyl-4-oxazolyl]propionyl]-2-methylphenoxy]acetic acid] | increase the cell number of normal human corneal epithelial cells | 260.2 ± 2.5 | 247.5 ± 14.1 | 243.3 ± 6.6 | 179.4 ± 7.5 | 175.2 ± 7.8 | 155.0 ± 11.6 |  |  |
| mEGF: epidermal growth factor mEGF derived from mouse, from HCGS growth additive set (KURABO); positive control (NSYPGCPSSYDGYCLNGGVCMHIESLDSYTCNCVIGYSGDRCQTRDLRWWELR; UniProt P01132 977-1029, looked up) [reference compound] |  |  |  |  |  |  |  | 232.8 ± 22.5 | 147.5 ± 47.2 |
